From ChEMBL document CHEMBL1149034, “8-Hydroxymanzamine A, a beta-carboline alkaloid from a sponge, Pachypellina sp” (J Nat Prod, 1994)
Values after ≈ are worked out from the molar mass of the structure shown. Active and inactive are the calls of the source. The calls are words filed in the database; no cut-off is given here.

What was measured:
KB = assay: Cytotoxicity against human KB cells; type: functional, cell-based
P388 = assay: Cytotoxicity against mouse P388 cells; type: functional, cell-based
Human alphaherpesvirus 2 = assay: Antiviral activity against HSV2; type: functional
LoVo = assay: Cytotoxicity against human LoVo cells; type: functional, cell-based

Compound | IC50 (KB) | Activity (P388) | MIC (Human alphaherpesvirus 2) | IC50 (LoVo) | IC50 (P388)
Oc1cccc2c1[nH]c1c(C3=C[C@@]4(O)CC/C=C\CCCCN5CC[C@@H]3[C@]3(CC6/C=C\CCCCN6[C@H]34)C5)nccc12 (stereo partly specified) | 0.3 µg/mL (≈ 0.531 µM) | inactive | 0.1 µg/mL (≈ 0.177 µM) | 0.26 µg/mL (≈ 0.46 µM) | –
COc1cccc2c1[nH]c1c(C3=C[C@@]4(O)CC/C=C\CCCCN5CC[C@@H]3[C@]3(C[C@@H]6/C=C\CCCCN6[C@H]34)C5)nccc12 [8-METHOXYMANZAMINE A] | 0.33 µg/mL (≈ 0.57 µM) | – | 0.1 µg/mL (≈ 0.173 µM) | 0.1 µg/mL (≈ 0.173 µM) | –
O[C@]12C=C(c3nccc4c3[nH]c3ccccc34)[C@@H]3CCN(CCCC/C=C\CC1)C[C@@]31C[C@@H]3/C=C\CCCCN3[C@H]12 [MANZAMINE A] | 0.05 µg/mL (≈ 0.0911 µM) | – | 0.05 µg/mL (≈ 0.0911 µM) | 0.15 µg/mL (≈ 0.273 µM) | 0.07 µg/mL (≈ 0.128 µM)
